We go through two molecules from patent US20020173489A1, “COMPOSITIONS CONTAINING A MIXTURE OF PHOSPHOROUS COMPOUNDS AND ALKYLGLYCEROLS” (priority 1987, published 2002).

Entries after “also recorded” stand apart in the source; their conditions may differ.

Series [1] has as its system wart-shaped excrescence. Description: topical treatment of a wart-shaped excrescence (Example 9). The format is in vivo, human. On the procedure:
A person presented a wart-shaped excrescence of increasing size (diameter: about 5 mm; height: about 3 mm), formed at the site of a stab wound on their right middle finger after an initial inflammatory reaction. The excrescence grew over a period of about 1.5 years. There was heavy vascularization at the site, as well as superficial furrowing. The position of the wart (side facing the ring finger), made it quite susceptible to injury.
The patient was treated by topically administering a composition containing 40 mg/ml hexadecylphosphocholine, 317 mg/ml of 3-propoxypropyleneglycol, 158 mg/ml of hexyloxypropyleneglycol, and 158 mg/ml of nonyloxypropyleneglycol, in solution, and then a solution containing 60 mg/ml of the hexadecy/phosphocholine, and the other components above, in the same amounts. The solutions were administered topically, 2-3 times per day.
The excrescence rapidly developed a horny surface, and regressed. Cornified residues were removable without bleeding. The treatment was terminated […] the surrounding skin level was reached. This took about 6 weeks. When the patient was examined about 8 weeks later, the condition was stable. […] It is believed that this was the result of regeneration of the epidermis in the excrescence region.

The test system of series [2] is chemically-induced mammary carcinomas. Put plainly: chemically-induced mammary carcinomas in rats, oral potable solution. Type of series: in vivo, rat. To be noted: daily doses of 20, 40 and 60 mg/kg body weight. The source says:
For oral administration, the compounds of formula I are advantageously used in the form of a potable solution. Suitable potable carriers for this purpose include milks, cocoa, fruit juices and drinking water. The preparation of such potable solutions can involve, for example, diluting a concentrated alcoholic solution of a compound of the formula I or I′ with water or with another one of the previously mentioned carriers. […] The tumor model used for these experiments was a so-called hard model. This means that the findings obtained with this model can also be applied to humans.

Take `CCCCCCCCCCCCCCCCOP(=O)([O-])OCC[N+](C)(C)C` [hexadecylphosphocholine]: the condition at follow-up result in series [1] (examined about 8 weeks after end of treatment) is “stable”. For the same molecule, in series [1] (person, topical 2-3 times per day, 40 then 60 mg/ml in propoxy-/hexyloxy-/nonyloxypropyleneglycol solution), the “effect on the excrescence” value is “regressed”. In addition, the “damage to surrounding healthy skin regions” value in series [1] (topical) is given as “no apparent damage”. Moreover, the “time of treatment until termination (before surrounding skin level was reached)” value in series [1] (topical 2-3 times per day) is “about 6 weeks”. The skin reactions result in series [1] (topical, reddening disappeared after about 2 weeks) is given as “slight reddening of the skin; also recorded: slight peeling of healthy skin”.
With `CCCCCCCC/C=C\CCCCCCCCOP(=O)([O-])OCC[N+](C)(C)C` [oleylphosphocholine], the “remission of chemically-induced mammary carcinomas” value in series [2] is given as “complete remission”.
